Columns and labels:
[1] = target: T1, human recombinant histamine H1 receptor (Homo sapiens, UniProt P35367); test: Histamine H1 radioligand binding ([3H]Pyrilamine); conditions: read-out: Histamine H1 Binding (1 μM), percent inhibition of specific binding; compound at 1 μM; 1.2 nM [3H]Pyrilamine
T1 construct: expressed in transfected cells; host or cells: CHO-K1
Summary of the method: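 Human recombinant H1 receptor expressed in CHO-K1 cells, in 50 mM Tris-HCl pH 7.4 with 2 mM MgCl2, 100 mM NaCl, 250 mM sucrose. Non-specific binding defined with 1 μM pyrilamine; bound [3H]pyrilamine counted after filtration and washing. Values are percent inhibition of specific binding.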

[2] = target: T2, human recombinant adrenergic α2C receptor (Homo sapiens, UniProt P18825); test: Adrenergic α2C radioligand binding ([3H]MK-912); conditions: read-out: Adrenergic (0.1 μM) a2C, percent inhibition of specific binding; compound at 0.1 μM; 1 nM [3H]MK-912
T2 construct: expressed in transfected cells; host or cells: insect Sf9 cells
T2 sequence (P18825 1-462): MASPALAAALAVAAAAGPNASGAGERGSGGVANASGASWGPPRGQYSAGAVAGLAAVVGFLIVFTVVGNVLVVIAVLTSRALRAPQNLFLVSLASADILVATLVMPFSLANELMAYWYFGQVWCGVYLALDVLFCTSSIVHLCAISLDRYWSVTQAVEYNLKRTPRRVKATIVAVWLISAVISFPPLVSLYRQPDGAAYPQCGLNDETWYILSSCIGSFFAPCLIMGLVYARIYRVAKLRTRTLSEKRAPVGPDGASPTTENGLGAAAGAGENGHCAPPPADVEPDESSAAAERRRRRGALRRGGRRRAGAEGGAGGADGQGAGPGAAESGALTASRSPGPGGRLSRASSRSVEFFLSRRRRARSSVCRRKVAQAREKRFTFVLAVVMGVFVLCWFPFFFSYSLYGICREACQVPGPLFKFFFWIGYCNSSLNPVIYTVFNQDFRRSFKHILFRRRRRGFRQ
Summary of the method: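 Membranes from Sf9 cells expressing the human receptor, in 50 mM Tris-HCl pH 7.4 with 12.5 mM MgCl2 and 2 mM EDTA, incubated with compound and 1 nM [3H]MK-912 for 60 min at 25 °C. Non-specific binding defined with 10 μM WB-4101. Filter-bound radioactivity counted; percent inhibition of specific binding reported.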

Adrenergic α1B = target: T3, Adrenergic α1B (Rattus norvegicus, UniProt P15823); test: Adrenergic α1B radioligand binding ([3H]Prazosin); conditions: read-out: Adrenergic (0.1 μM) a1B, percent inhibition of specific binding; compound at 0.1 μM; 0.25 nM [3H]Prazosin; Wistar Rat liver
T3 construct: rat adrenergic α1D receptor obtained from Wistar Rat liver; from tissue; host or cells: Wistar rat liver
T3 sequence (P15823 1-515): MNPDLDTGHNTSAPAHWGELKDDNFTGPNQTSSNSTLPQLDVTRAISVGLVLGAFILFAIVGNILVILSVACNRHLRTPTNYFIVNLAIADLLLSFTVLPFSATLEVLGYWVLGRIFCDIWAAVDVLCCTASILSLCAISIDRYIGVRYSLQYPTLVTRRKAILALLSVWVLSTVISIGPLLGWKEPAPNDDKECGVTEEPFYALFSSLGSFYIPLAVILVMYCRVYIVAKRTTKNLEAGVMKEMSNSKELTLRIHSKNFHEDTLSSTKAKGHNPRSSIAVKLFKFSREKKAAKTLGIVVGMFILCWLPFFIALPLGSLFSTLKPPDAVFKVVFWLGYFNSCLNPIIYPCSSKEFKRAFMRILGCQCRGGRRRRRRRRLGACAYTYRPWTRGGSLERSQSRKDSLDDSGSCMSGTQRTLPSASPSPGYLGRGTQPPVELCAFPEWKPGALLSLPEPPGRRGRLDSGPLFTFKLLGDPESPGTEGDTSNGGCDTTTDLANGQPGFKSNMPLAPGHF
Procedure: To evaluate in radioligand binding assays the activity of compounds of the invention, rat adrenergic α1D receptor obtained from Wistar Rat liver (Garcia-S'ainz, J. et al, Biochem. Biophys. Res. Commun. 186:760, 1992; Michel, A. et al, Br. J. Pharmacol. 98:883, 1989) in a modified Tris-HCl buffer (50 mM Tris-HCl buffer, pH 7.4, 0.5 mM EDTA) was used. Compounds of the invention were incubated with 0.25 nM [^3H]Prazosin for 60 min at 25° C. Non-specific binding was estimated in the presence of 10 μM phentolamine Receptor proteins were filtered and washed, the filters were then counted to determine [^3H]Prazosin specifically bound. […] Compounds of the invention were tested in this biochemical assay and percent inhibition of specific binding was determined.

[3] = target: T4, human recombinant adrenergic α2A receptor (Homo sapiens, UniProt P08913); test: Adrenergic α2A radioligand binding ([3H]MK-912); conditions: read-out: Adrenergic (0.1 μM) a2A, percent inhibition of specific binding; compound at 0.1 μM; 1 nM [3H]MK-912
T4 construct: expressed in transfected cells; host or cells: insect Sf9 cells
T4 sequence (P08913 1-465): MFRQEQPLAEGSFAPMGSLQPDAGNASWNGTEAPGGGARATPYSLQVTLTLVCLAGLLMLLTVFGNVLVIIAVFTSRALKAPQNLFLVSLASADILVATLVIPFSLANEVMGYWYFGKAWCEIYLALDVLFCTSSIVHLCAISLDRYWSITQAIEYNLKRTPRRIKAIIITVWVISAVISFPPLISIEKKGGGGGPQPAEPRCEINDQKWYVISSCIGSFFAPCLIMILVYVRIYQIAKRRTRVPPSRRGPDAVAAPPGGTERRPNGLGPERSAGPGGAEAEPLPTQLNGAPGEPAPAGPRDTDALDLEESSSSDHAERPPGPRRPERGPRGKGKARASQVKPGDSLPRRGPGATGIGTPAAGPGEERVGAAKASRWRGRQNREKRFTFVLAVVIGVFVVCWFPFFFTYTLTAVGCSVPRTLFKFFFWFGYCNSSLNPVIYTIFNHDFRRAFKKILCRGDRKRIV
Procedure: To evaluate in radioligand binding assays the activity of compounds of the invention, human recombinant adrenergic α2A receptor expressed in insect Sf9 cells (Uhlen, S. et al, J. Pharmacol. Exp. Ther. 271:1558, 1994) in a modified Tris-HCl buffer (50 mM Tris-HCl, pH 7.4, 12.5 mM MgCl2, 2 mM EDTA) was used. Compounds of invention were incubated with 1 nM [^3H]MK-912 for 60 min at 25° C. MK-912 is (2S-trans)-1,3,4,5′,6,6′,7,12b-octahydro-1′,3′-dimethyl-spiro[2H-benzofuro[2,3-a]quinolizine-2,4′(1′H)-pyrimidin]-2′(3′H)-one hydrochloride Non-specific binding was estimated in the presence of 10 μM WB-4101 (2-(2,6-Dimethoxyphenoxyethyl)aminomethyl-1,4-benzodioxane hydrochloride). Receptor proteins were filtered and washed, the filters were then counted to determine [^3H]MK-912 specifically bound. […] Compounds of the invention were tested in this biochemical assay and percent inhibition of specific binding was determined.

T1 sequence (P35367 whole entry): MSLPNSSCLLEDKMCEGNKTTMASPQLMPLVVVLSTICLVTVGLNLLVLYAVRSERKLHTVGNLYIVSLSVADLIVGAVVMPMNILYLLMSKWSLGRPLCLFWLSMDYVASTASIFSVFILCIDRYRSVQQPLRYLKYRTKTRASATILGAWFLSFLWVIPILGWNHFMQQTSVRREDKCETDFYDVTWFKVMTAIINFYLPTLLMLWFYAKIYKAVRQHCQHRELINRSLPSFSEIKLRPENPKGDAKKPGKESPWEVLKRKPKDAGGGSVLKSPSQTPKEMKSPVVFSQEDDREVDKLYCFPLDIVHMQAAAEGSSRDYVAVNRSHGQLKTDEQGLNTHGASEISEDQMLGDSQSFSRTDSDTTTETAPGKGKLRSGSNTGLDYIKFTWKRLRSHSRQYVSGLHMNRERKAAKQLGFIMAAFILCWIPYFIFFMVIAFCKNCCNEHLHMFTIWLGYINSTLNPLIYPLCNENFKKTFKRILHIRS

With `Cc1ccc2c(c1)c1c(n2-c2ccccc2-c2cc3ccccc3s2)CCN(C)C1` [Compound No. 103, 5-(2-(benzo[b]thiophen-2-yl)phenyl)-2,8-dimethyl-2,3,4,5-tetrahydro-1H-pyrido[4,3-b]indole] the inhibition at 1 µM [1] was 10% and the inhibition at 0.1 µM [2] was 69%.
Molecule `Cc1ccc2c(c1)c1c(n2-c2ccccc2-c2cnn(C)c2)CCN(C)C1` [Compound No. 86, 2,8-dimethyl-5-(2-(1-methyl-1H-pyrazol-4-yl)phenyl)-2,3,4,5-tetrahydro-1H-pyrido[4,3-b]indole] has an inhibition at 1 µM [1] of 47% and an inhibition at 0.1 µM [2] of 0%.
In the case of `Cc1ccc2c(c1)c1c(n2-c2ccccc2-c2cccc3[nH]ncc23)CCN(C)C1` [Compound No. 105, 5-(2-(1H-indazol-4-yl)phenyl)-2,8-dimethyl-2,3,4,5-tetrahydro-1H-pyrido[4,3-b]indole], the inhibition at 1 µM [1] is reported as 34% and the inhibition at 0.1 µM [2] is reported as 45%.
`Cc1ccc2c(c1)c1c(n2-c2ccccc2-c2cn[nH]c2)CCN(C)C1` [Compound No. 104, 5-(2-(1H-pyrazol-4-yl)phenyl)-2,8-dimethyl-2,3,4,5-tetrahydro-1H-pyrido[4,3-b]indole] was tested, and the inhibition at 1 µM [1] was 24%, the inhibition at 0.1 µM (Adrenergic α1B) was 9% and the inhibition at 0.1 µM [3] was 14%. It also gave an inhibition at 0.1 µM [2] of 1%.
Molecule `Cc1ccc2c(c1)c1c(n2-c2cnc3ccccc3c2)CCN(C)C1` [Compound No. 88, 2,8-dimethyl-5-quinolin-3-yl-2,3,4,5-tetrahydro-1H-pyrido[4,3-b]indole] has an inhibition at 1 µM [1] of 18% and an inhibition at 0.1 µM [2] of 4%.
`Cc1ccc2c(c1)c1c(n2-c2ccccc2-c2sccc2C)CCN(C)C1` [Compound No. 102, 2,8-dimethyl-5-(2-(3-methylthiophen-2-yl)phenyl)-2,3,4,5-tetrahydro-1H-pyrido[4,3-b]indole] gave an inhibition at 1 µM [1] of 57% and an inhibition at 0.1 µM [2] of 43%.
`Cc1ccc2c(c1)c1c(n2-c2ccccc2-c2cncc3ccccc23)CCN(C)C1` [Compound No. 87, 5-(2-(isoquinolin-4-yl)phenyl)-2,8-dimethyl-2,3,4,5-tetrahydro-1H-pyrido[4,3-b]indole] showed an inhibition at 1 µM [1] of 47% and an inhibition at 0.1 µM [2] of -6%.
`Cc1ccc2c(c1)c1c(n2-c2ccccc2-c2cccn2C)CCN(C)C1` [Compound No. 100, 2,8-dimethyl-5-(2-(1-methyl-1H-pyrrol-2-yl)phenyl)-2,3,4,5-tetrahydro-1H-pyrido[4,3-b]indole] gave an inhibition at 1 µM [1] of 36%, an inhibition at 0.1 µM [3] of 95% and an inhibition at 0.1 µM [2] of 66%.
